Reference: patent US6358883B1, “Pesticidal and parasiticidal use of 1-aryl-1-(substituted thio, sulfinyl and sulfonyl)-2-nitroethane compounds” (American Cyanamid Company, priority 1998, dated 2002)

Columns and labels:
Assay type in all cases: in vivo
[1] = test system: M. incognita (Root Knot Nematode) larvae; assay: Evaluation of test compounds against M. incognita larvae in microtiter plate wells (movement score); conditions: larvae scored for movement after 20-24 hours; further: key: A score of '9' indicates inactive worms with a straight, sticklike morphology; A score of '8' indicates inactive worms with a limp, curled or curved morphology; A score of '7' indicates dead/paralyzed worms after 72 hours
Procedure: Evaluation of Test Compounds Against M. incognita (Root Knot Nematode)
Newly emerged M. incognita larvae are suspended in S Medium (buffered salt solution) to a concentration of 50-65 worms per 50 μl. 50 μl of the worm suspension are pipetted into microtiter plate wells containing the test compounds. The plates are then covered with plactic plate sealers to reduce loss of volume by evaporation. After 20-24 hours of incubation, the larvae are scored for movement. Wells containing obviously dead/paralyzed larvae are scored as positive. […] A score of “7” indicates dead/paralyzed worms after […].

[2] = test system: C. elegans (Bristol strain); assay: Evaluation of test compounds against C. elegans (motility, 96-well plate); design: key: 9=complete kill in 4 hours; 8=complete kill in 24 hours; 7=markedly reduced motility in approximately 95% of worms in 24 hours; 0=normal motility, same as controls; conditions: motility at 4 and 24 hours
Procedure: Evaluation of Test Compounds Against C. elegans Cultures of C. elegans (Bristol strain from J. Lewis) are maintained on E. coli lawns on NG Agar Plates at 20° C. New cultures are established weekly. Nematodes for testing are washed from cultures using Na buffer. Compounds are dissolved in 80% acetone. The test material is micropipetted (25 μl) into a single well of a 96-well sterile tissue culture plate and the solvent allowed to evaporate. A freshly prepared volume (50 μl) of C. elegans in Na buffer is micropipetted into each treated well and several control wells per plate. Plates are incubated at 20° C. Observations for efficacy are made under a dissecting microscope at 4 and 24 hours post-immersion. Immediately prior to reading the plate, it is gently tapped to stimulate the movement of the worms. Activity is judged subjectively, but semi-quantitatively, based on the drug effects on motility of the adults and larvae.

[3] = test system: Spodoptera eridania, 2nd instar larvae, southern armyworm (SAW); assay: Southern armyworm (SAW) leaf dip test; design: key: 0 = no effect; 1 = 10-25% kill; 2 = 26-35% kill; 3 = 36-45% kill; 4 = 46-55% kill; 5 = 56-65% kill; 6 = 66-75% kill; 7 = 76-85% kill; 8 = 86-99% kill; 9 = 100% kill
Procedure: (§1) Test solutions are prepared by dissolving the test compound in a 35% acetone in water mixture to give a concentration of 10,000 ppm. Subsequent dilutions are made with water as needed.
Spodoptera eridania, 2nd Instar Larvae, Southern Armyworm (SAW)
A Sieva lima bean leaf expanded to 7-8 cm in length is dipped in the test solution with agitation for 3 seconds and allowed to dry in a hood. The leaf is then placed in a 100×10 mm petri dish containing a damp filter paper on the bottom and ten 2nd instar caterpillars. At 5 days, observations are made of mortality, reduced feeding, or any interference with normal molting.

[4] = test system: Diabrotica virgifera virgifera Leconte, 2nd instar western corn rootworm (WCR); assay: Western corn rootworm (WCR) soil test; design: key: 0 = no effect; 1 = 10-25% kill; 2 = 26-35% kill; 3 = 36-45% kill; 4 = 46-55% kill; 5 = 56-65% kill; 6 = 66-75% kill; 7 = 76-85% kill; 8 = 86-99% kill; 9 = 100% kill
Procedure: Test solutions are prepared by dissolving the test compound in a 35% acetone in water mixture to give a concentration of 10,000 ppm. Subsequent dilutions are made with water as needed. Diabrotica virgifera virgifera Leconte, 2nd Instar Western Corn Rootworm (WCR) One cc of fine talc is placed in a 30 mL wide-mouth screw-top glass jar. One mL of the appropriate acetone test solution is pipetted onto the talc so as to provide 1.25 mg of active ingredient per jar. The jars are set under a gentle air flow until the acetone is evaporated. The dried talc is loosened, 1 cc of millet seed is added to serve as food for the insects and 25 mL of moist soil is added to each jar. The jar is capped and the contents thoroughly mixed mechanically. Following this, ten 2nd instar rootworms are added to each jar and the jars are loosely capped to allow air exchange for the larvae. The treatments are held for 5 days when mortality counts are made. Missing larvae are presumed dead, since they decompose rapidly and cannot be found. The concentrations of active ingredient used in this test correspond approximately to 50 kg/ha. [table]

[5] = test system: Tetranychus urticae (OP-resistant strain), 2-spotted spider mite (TSM); assay: 2-spotted spider mite (TSM) plant dip test; design: key: 0 = no effect; 1 = 10-25% kill; 2 = 26-35% kill; 3 = 36-45% kill; 4 = 46-55% kill; 5 = 56-65% kill; 6 = 66-75% kill; 7 = 76-85% kill; 8 = 86-99% kill; 9 = 100% kill; conditions: mortality after 2 days
Procedure: as §1
Tetranychus urticae (OP-resistant strain), 2-spotted Spider Mite (TSM)
Sieva lima bean plants with primary leaves expanded to 7-8 cm are selected and cut back to one plant per pot. A small piece is cut from an infested leaf taken from the main colony and placed on each leaf of the test plants. This is done about 2 hours before treatment to allow the mites to move over to the test plant to lay eggs. The size of the cut, infested leaf is varied to obtain about 100 mites per leaf. At the time of test treatment, the piece of leaf used to transfer the mites is removed and discarded. The newly-infested plants are dipped in the test solution for 3 seconds with agitation and set in the hood to dry. After 2 days, one leaf is removed and mortality counts are made.

[6] = test system: Aphis gossypii, cotton aphid (CA); assay: Cotton aphid (CA) cotyledon dip test; design: key: 0 = no effect; 1 = 10-25% kill; 2 = 26-35% kill; 3 = 36-45% kill; 4 = 46-55% kill; 5 = 56-65% kill; 6 = 66-75% kill; 7 = 76-85% kill; 8 = 86-99% kill; 9 = 100% kill; conditions: mortality after 5 days
Procedure: Test solutions are prepared by dissolving the test compound in a 35% acetone in water mixture to give a concentration of 10,000 ppm. Subsequent dilutions are made with water as needed. Aphis gossypii, Cotton Aphid (CA) Cotton plants at the cotyledon stage are selected and cut back to one plant per pot. A heavily infested leaf is taken from the main colony and placed on top of each cotyledon. The aphids are allowed to transfer to the host plant overnight. At the time of test treatment, the leaf used to transfer the aphids is removed and discarded. The cotyledons are dipped in the test solution and allowed to dry. After 5 days, mortality counts are made. [table]

## O=C(O)CSC(C[N+](=O)[O-])c1ccc2c(c1)OCO2 (stereo not shown) [Example 64]
[1]
  M. incognita (150 ppm) score: 9
[2]
  Rating Against C. elegans (150 ppm): 9
[3]
  SAW (300 ppm) rating: 0
[4]
  WCR (50 ppm) rating: 0
[5]
  TSM (300 ppm) rating: 9 (9 = 100% kill)
[6]
  CA (300 ppm) rating: 0

## CCOC(=O)CSC(c1ccccc1)C(C)[N+](=O)[O-] (stereo not shown) [Example 151]
[3]
  SAW (300 ppm) rating: 0
[4]
  WCR (50 ppm) rating: 0
[5]
  TSM (300 ppm) rating: 0
[6]
  CA (300 ppm) rating: 0

## O=[N+]([O-])CC(SCc1ccco1)c1ccccc1 (stereo not shown) [Example 156]
[3]
  SAW (300 ppm) rating: 0
[4]
  WCR (50 ppm) rating: 0
[5]
  TSM (300 ppm) rating: 0
[6]
  CA (300 ppm) rating: 0

## COc1cccc(C(C[N+](=O)[O-])SCC(=O)O)c1 (stereo not shown) [Example 68]
[1]
  M. incognita (150 ppm) score: 9
[2]
  Rating Against C. elegans (150 ppm): 8
[3]
  SAW (300 ppm) rating: 0
[4]
  WCR (50 ppm) rating: 3 (3 = 36-45% kill)
[5]
  TSM (300 ppm) rating: 0
[6]
  CA (300 ppm) rating: 0

## COc1ccc(C(C[N+](=O)[O-])SCC(=O)O)cc1 (stereo not shown) [Example 69]
[1]
  M. incognita (150 ppm) score: 9
[2]
  Rating Against C. elegans (150 ppm): 9
[3]
  SAW (300 ppm) rating: 0
[4]
  WCR (50 ppm) rating: 0
[5]
  TSM (300 ppm) rating: 0
[6]
  CA (300 ppm) rating: 0

## O=C(O)CSC(C[N+](=O)[O-])c1ccccc1F (stereo not shown) [Example 67]
[1]
  M. incognita (150 ppm) score: 9
[2]
  Rating Against C. elegans (150 ppm): 9
[3]
  SAW (300 ppm) rating: 0
[4]
  WCR (50 ppm) rating: 9 (9 = 100% kill)
[5]
  TSM (300 ppm) rating: 0
[6]
  CA (300 ppm) rating: 0

## CC(C)CCCCCOC(=O)CSC(C[N+](=O)[O-])c1ccc(Cl)cc1 (stereo not shown) [Example 73]
[1]
  M. incognita (150 ppm) score: 0
[2]
  Rating Against C. elegans (150 ppm): 0
[3]
  SAW (300 ppm) rating: 0
[4]
  WCR (50 ppm) rating: 0
[5]
  TSM (300 ppm) rating: 0
[6]
  CA (300 ppm) rating: 0

## O=C(O)CSC(C[N+](=O)[O-])c1ccc(Cl)cc1 (stereo not shown) [Example 78]
[1]
  M. incognita (150 ppm) score: 9
[2]
  Rating Against C. elegans (150 ppm): 7
[3]
  SAW (300 ppm) rating: 0
[4]
  WCR (50 ppm) rating: 0
[5]
  TSM (300 ppm) rating: 0
[6]
  CA (300 ppm) rating: 0

## COC(=O)CSC(c1ccccc1)C(C)[N+](=O)[O-] (stereo not shown) [Example 150]
[3]
  SAW (300 ppm) rating: 0
[4]
  WCR (50 ppm) rating: 6 (6 = 66-75% kill)
[5]
  TSM (300 ppm) rating: 0
[6]
  CA (300 ppm) rating: 0

## CCOC(=O)CSC(C[N+](=O)[O-])c1ccc(Cl)cc1 (stereo not shown) [Example 71]
[1]
  M. incognita (150 ppm) score: 0
[2]
  Rating Against C. elegans (150 ppm): 7
[3]
  SAW (300 ppm) rating: 0
[4]
  WCR (50 ppm) rating: 0
[5]
  TSM (300 ppm) rating: 0
[6]
  CA (300 ppm) rating: 0

## O=[N+]([O-])CC(SCc1ccco1)c1ccc2c(c1)OCO2 (stereo not shown) [Example 159]
[3]
  SAW (300 ppm) rating: 0
[4]
  WCR (50 ppm) rating: 0
[5]
  TSM (300 ppm) rating: 0
[6]
  CA (300 ppm) rating: 0

## O=[N+]([O-])CC(SCC(O)CO)c1ccccc1 (stereo not shown) [Example 85]
[1]
  M. incognita (150 ppm) score: 9
[2]
  Rating Against C. elegans (150 ppm): 7

## COC(=O)CSC(C[N+](=O)[O-])c1ccc(F)c(F)c1 (stereo not shown) [Example 152]
[3]
  SAW (300 ppm) rating: 0
[4]
  WCR (50 ppm) rating: 7 (7 = 76-85% kill)
[5]
  TSM (300 ppm) rating: 0
[6]
  CA (300 ppm) rating: 0

## CCCCOC(=O)CSC(C[N+](=O)[O-])c1ccc(Cl)cc1 (stereo not shown) [Example 72]
[1]
  M. incognita (150 ppm) score: 0
[2]
  Rating Against C. elegans (150 ppm): 0
[3]
  SAW (300 ppm) rating: 0
[4]
  WCR (50 ppm) rating: 0
[5]
  TSM (300 ppm) rating: 0
[6]
  CA (300 ppm) rating: 0

## COC(=O)CSC(C[N+](=O)[O-])c1ccc(OC)c(OC)c1 (stereo not shown) [Example 86]
[1]
  M. incognita (150 ppm) score: 0
[2]
  Rating Against C. elegans (150 ppm): 0

## CCCOC(=O)CSC(C[N+](=O)[O-])c1ccc(F)c(F)c1 (stereo not shown) [Example 154]
[3]
  SAW (300 ppm) rating: 0
[4]
  WCR (50 ppm) rating: 0
[5]
  TSM (300 ppm) rating: 0
[6]
  CA (300 ppm) rating: 0

## CCOC(=O)CSC(C[N+](=O)[O-])c1ccc(F)c(F)c1 (stereo not shown) [Example 153]
[3]
  SAW (300 ppm) rating: 0
[4]
  WCR (50 ppm) rating: 0
[5]
  TSM (300 ppm) rating: 0
[6]
  CA (300 ppm) rating: 0

## CC(C)OC(=O)CSC(C[N+](=O)[O-])c1ccc(F)c(F)c1 (stereo not shown) [Example 155]
[3]
  SAW (300 ppm) rating: 0
[4]
  WCR (50 ppm) rating: 0
[5]
  TSM (300 ppm) rating: 3 (3 = 36-45% kill)
[6]
  CA (300 ppm) rating: 0

## COc1cc(OC)cc(C(C[N+](=O)[O-])SCC(O)CO)c1 (stereo not shown) [Example 87]
[1]
  M. incognita (150 ppm) score: 0
[2]
  Rating Against C. elegans (150 ppm): 0

## CCCCOC(=O)CSC(c1ccccc1)C(C)[N+](=O)[O-] (stereo not shown) [Example 162]
[3]
  SAW (300 ppm) rating: 0
[4]
  WCR (50 ppm) rating: 6 (6 = 66-75% kill)
[5]
  TSM (300 ppm) rating: 0
[6]
  CA (300 ppm) rating: 0

## COc1ccc(C(C[N+](=O)[O-])SCc2ccccc2)c(OC)c1 (stereo not shown) [Example 81]
[1]
  M. incognita (150 ppm) score: 0
[2]
  Rating Against C. elegans (150 ppm): 7

## CC(C(SCC(=O)O)c1ccccc1)[N+](=O)[O-] (stereo not shown) [Example 161]
[3]
  SAW (300 ppm) rating: 0
[4]
  WCR (50 ppm) rating: 4 (4 = 46-55% kill)
[5]
  TSM (300 ppm) rating: 0
[6]
  CA (300 ppm) rating: 0

## C=CCSC(C[N+](=O)[O-])c1ccc(Cl)cc1 (stereo not shown) [Example 77]
[1]
  M. incognita (150 ppm) score: 0
[2]
  Rating Against C. elegans (150 ppm): 0
[3]
  SAW (300 ppm) rating: 0
[4]
  WCR (50 ppm) rating: 0
[5]
  TSM (300 ppm) rating: 3 (3 = 36-45% kill)

## COc1ccc(C(C[N+](=O)[O-])SCC(=O)N2CCOCC2)c(OC)c1 (stereo not shown) [Example 80]
[1]
  M. incognita (150 ppm) score: 0
[2]
  Rating Against C. elegans (150 ppm): 7

## NC(CSC(C[N+](=O)[O-])c1ccccc1)C(=O)O (stereo not shown) [Example 83]
[1]
  M. incognita (150 ppm) score: 9
[2]
  Rating Against C. elegans (150 ppm): 9

## COc1ccc(C(C[N+](=O)[O-])SCC(N)C(=O)O)c(OC)c1 (stereo not shown) [Example 84]
[1]
  M. incognita (150 ppm) score: 0
[2]
  Rating Against C. elegans (150 ppm): 9

## COC(=O)CSC(C[N+](=O)[O-])c1ccc(OC)cc1OC (stereo not shown) [Example 79]
[1]
  M. incognita (150 ppm) score: 0
[2]
  Rating Against C. elegans (150 ppm): 7
